Data from US20130089601A1, “METHOD FOR TREATING ATHEROSCLEROSIS” (KAOHSIUNG MEDICAL UNIVERSITY, priority 2009, published 2013).

Tests used:
endogenous microRNA-195 = assay: Endogenous microRNA-195 in VSMC by quantitative real-time PCR, normalized to U44; type: cell-based, human; settings: ox-LDL and simvastatin 1 nM for 24 hours
Experimental: Quantitative real-time PCR was performed in an ABI PRIZM 7500 sequence detection system in triplicates. The typical amplification program was carried out in a 20 μl reaction with a primer at a final concentration of 300 nM and probes of 200 nM. Serial dilutions of the control cDNA for generating standard curves ran in duplicate. Real-time PCR results were analyzed using ABI PRISM 7500 SDS software. Relative differences of microRNAs were quantified using the […] method. For graphical presentation, the 2^−ΔΔCt transformation was used according to the ABI user bulletin version #2. Expression values were depicted relatively to the value at baseline which was the earliest time point present in all the experiments.

VSMC cells = assay: Chemotactic migration of VSMC (Transwell); type: cell-based, human; settings: 100 nM for 24 hours, ox-LDL 40 μg/ml
Experimental: Chemotactic migration is another characteristic of atherosclerosis and can be used as another line of evidence of atherosclerotic change for the cultured VSMC cells. This experiment was assayed by using a microchemotactic chamber and polycarbonate filters with pores of […] in diameter (Transwell, Millipore). After incubated with microRNA-195 (Pre-miR miRNA, hsa-miR-195 (product ID PM10827), Ambion Inc.) (100 nM) or an inhibitor (100 nM) for 24 hours, the VSMC cells were trypsinized and suspended with a serum free medium. A volume (300 μl) of a 1×10^4 cell suspension was placed in the upper chamber, the medium containing ox-LDL (40 μg/ml, each) was placed in the lower and upper chamber. The cell suspension was incubated at a temperature of 37° C. under 5% CO2 in air for 24 hours. After incubation, the VSMC cells on the upper side of the filter were scraped off, and the cells that had directly migrated to the lower side of the filter were trypsinized. The cells were fixed with methanol and stained with a Giemsa solution (Merck). Quantification of chemotactic migration was performed using the hemocytometer.

Row | Compound | endogenous microRNA-195 decrease versus ox-LDL-stimulated cells (endogenous microRNA-195) [fold] | chemotactic migration, percentage of migrated cells compared to control medium cells (VSMC cells) [%]
1 | CCC(C)(C)C(=O)O[C@H]1C[C@@H](C)C=C2C=C[C@H](C)[C@H](CC[C@@H]3C[C@@H](O)CC(=O)O3)[C@H]21 [simvastatin] | > 0.68 | –
2 | microRNA-195 inhibitor: 5′-GCCAATATTTCTGTGCTGCTA-3′ (SEQ ID NO: 6), Ambion; used to specifically bind to and inhibit endogenous microRNA-195 (listed as DNA, chemistry not given here) [reference compound] | – | 233.7
